For 100 molecules, Kd results are on record in PubChem BioAssay AID1549 (Sanford-Burnham Center for Chemical Genomics, 2009).

The Kd is the free concentration of one partner at which half of the binding sites on the other are occupied at equilibrium, for simple one-to-one binding.

Activity calls are given as the source filed them. How the calls were made is not given here.

The target of the experiment is Influenza A virus M2 proton channel (A/TW/4845/1999 H1N1). Briefly: NMR binding screen, influenza A virus M2 proton channel, Kd (AID 1549). Conditions: M2 protein.
Take `O=C(O)CCCC(=O)Nc1nccs1`: the Kd is > 4 mM (inactive).

For `CC1(C)CCC(C)(C)c2cc(C(=O)O)ccc21`, the Kd was > 4 mM (inactive).

Take `Cc1ccc(CCNc2ccccc2)c[n+]1[O-]`: the Kd was > 4 mM (inactive).

As to `CCOC(=O)c1c(C)cc(O)c(C=O)c1O`, the Kd was > 4 mM (inactive).

As to `CCC(=O)Oc1ccc(N2C(=O)CCC2=O)cc1`, the Kd was > 4 mM (inactive).

As to `Nc1cc(=O)[nH]c(=S)n1-c1cccc(C(F)(F)F)c1`, the Kd is > 4 mM (inactive).

`CC(CCC(=O)O)[C@H]1CCC2C3CC[C@@H]4C[C@H](O)CC[C@]4(C)C3CC[C@@]21C` (stereo not given in full): the Kd was > 4 mM (inactive).

As for `c1csc(-c2nn[nH]n2)c1`, the Kd is > 4 mM (inactive).

In the case of `O=C(/C=C/c1ccc(O)cc1)c1ccc(O)cc1O`, the Kd was > 4 mM (inactive).

For the molecule `O=C(O)C1CNc2ccccc2O1` (stereo not given), the Kd was > 4 mM (inactive).

Turning to `O=c1ccnc(Nc2ccccc2O)[nH]1`, the Kd is > 4 mM (inactive).

For the molecule `Nc1cccc2nonc12`, the Kd was > 4 mM (inactive).

As to `O=C(Nc1nncs1)Oc1ccccc1`, the Kd is > 4 mM (inactive).

For `COC(=O)C[C@@H]1C2(C)C(=O)[C@@H](CC3=C4C=C(OC)O[C@@H](c5ccoc5)[C@]4(C)CCC32)[C@H](O)C1(C)C` (stereo not given in full), the Kd is > 4 mM (inactive).

Take `CC12CN3CC(C)(CN(C1)C3c1cccs1)C2O` (stereo not given): the Kd was > 4 mM (inactive).

In the case of `O=C(O)CCC(=O)Nc1ccccc1F`, the Kd is > 4 mM (inactive).

As to `O=C(c1ccccc1)N1CCN(c2ccccc2F)CC1`, the Kd is > 4 mM (inactive).

Consider `Cc1cc(=O)c2c(O)cc(O)c(C)c2o1`, for which the Kd was > 4 mM (inactive).

With `CC1CCN(C(=O)c2ccc(NS(C)(=O)=O)cc2)CC1`, the Kd was > 4 mM (inactive).

As to `CC[C@@]1(O)C[C@H](O)c2c(cc3c(c2O)C(=O)c2c(O)ccc(O)c2C3=O)[C@H]1C(=O)OC`, the Kd is > 4 mM (inactive).

`O=C1CSC(=O)N1CN1CCOCC1`: the Kd was > 4 mM (inactive).

In the case of `O=C(O)c1ccc(-c2cccs2)cc1`, the Kd is > 4 mM (inactive).

Consider `Cc1csc(NC(=O)c2ccoc2C)n1`, for which the Kd was > 4 mM (inactive).

As for `COc1cc(C)c(Cl)cc1S(=O)(=O)N(C)C`, the Kd was > 4 mM (inactive).

Turning to `CC(=O)C1CC[C@H]2C3CC[C@H]4C[C@H](O)CC[C@]4(C)C3CC[C@]12C` (stereo not given in full), the Kd was > 4 mM (inactive).

As to `O=C(O)C1CCN(C(=O)c2cccs2)CC1`, the Kd was > 4 mM (inactive).

Regarding `NC(=O)Cn1nnc(-c2ccc(C(F)(F)F)cc2)n1`, the Kd was > 4 mM (inactive).

For `O=C(CC1SC(=O)NC1=O)Nc1ccccc1` (stereo not given), the Kd was > 4 mM (inactive).

Regarding `C[C@@H]1CC[C@@]2(OC1)O[C@H]1CC3C4CC[C@H]5C[C@@H](O)CC[C@]5(C)C4CC[C@]3(C)[C@H]1[C@@H]2C` (stereo not given in full), the Kd is > 4 mM (inactive).

For `Cc1cc(C(=O)Nc2cccnc2)no1`, the Kd was > 4 mM (inactive).

Consider `Nc1ncnc(NCCO)c1[N+](=O)[O-]`, for which the Kd was > 4 mM (inactive).

Regarding `CCNCC(O)c1ccc([N+](=O)[O-])cc1` (stereo not given), the Kd is > 4 mM (inactive).

In the case of `O=C(O)CCCNC(=O)c1ccccc1C(=O)O`, the Kd is > 4 mM (inactive).

Take `NC(=O)NC1C=CS(=O)(=O)C1` (stereo not given): the Kd is > 4 mM (inactive).

As for `COc1ccc([C@H]2COc3c(ccc(O)c3OC)C2)c(OC)c1O`, the Kd is > 4 mM (inactive).

Turning to `CC(=O)Nc1cccc(NC(=O)c2ccco2)c1`, the Kd is > 4 mM (inactive).

Regarding `COC1=CC(=O)C[C@@H](C)[C@]12Oc1c(Cl)c(OC)cc(OC)c1C2=O`, the Kd was > 4 mM (inactive).

As to `Nc1nc2c3ccccc3nc(Cc3ccccc3)n2n1`, the Kd was > 4 mM (inactive).

Take `CC(=O)Oc1cccc2ccc(=O)[nH]c12`: the Kd is > 4 mM (inactive).

`CC(=O)C1CCC2C3CCC4C[C@H](O)CCC4(C)C3C[C@H](O)C12C` (stereo not given in full): the Kd is > 4 mM (inactive).

As to `Cc1cc(C(=O)N2CCN(c3ccccn3)CC2)c(C)o1`, the Kd was > 4 mM (inactive).

`Nc1nc2ccc(S(N)(=O)=O)cc2s1`: the Kd was > 4 mM (inactive).

As for `CC(=O)Oc1cc2c(C(C)=O)coc2c2ccccc12`, the Kd was > 4 mM (inactive).

Consider `O=C(O)CCCc1nc2ccccc2s1`, for which the Kd was > 4 mM (inactive).

For `Cn1ncc(CO)c1-c1ccccc1`, the Kd is > 4 mM (inactive).

As to `CC(C)=CC(=O)Nc1ccccc1C(N)=O`, the Kd is > 4 mM (inactive).

Turning to `CC(C)=CCCC1(C)C=Cc2c(O)c3c(c(CC=C(C)C)c2O1)OC12C(=CC4CC1C(C)(C)OC2(C/C=C(/C)C(=O)O)C4=O)C3=O` (stereo not given), the Kd was > 4 mM (inactive).

With `OC1CCCN(Cc2ccccc2)C1` (stereo not given), the Kd was > 4 mM (inactive).

For the molecule `C=C1C2CC[C@@]3(C)[C@H](c4ccoc4)OC(=O)C[C@]13O[C@H]1CC(=O)C(C)(C)C(CC(=O)OC)C21C` (stereo not given in full), the Kd is > 4 mM (inactive).

On to `COc1ccc(Cc2nccc3cc(OC)c(OC)cc23)cc1OC`, for which the Kd was > 4 mM (inactive).

Turning to `NC(=O)c1cc(Cl)c(C(N)=O)cc1Cl`, the Kd was > 4 mM (inactive).

Regarding `COc1cc(/C=C2\SC(=S)NC2=O)ccc1O`, the Kd was > 4 mM (inactive).

In the case of `CSc1n[nH]c(NCc2ccccc2)n1`, the Kd is > 4 mM (inactive).

On to `Cc1nc2ccccc2c(=O)[nH]1`, for which the Kd was > 4 mM (inactive).

`CC(=O)NC(O)C(=O)c1ccccc1` (stereo not given): the Kd was > 4 mM (inactive).

For `NC(=O)c1ccsc1N`, the Kd is > 4 mM (inactive).

Take `Cc1nn2c(-c3ccncc3)nnc2c2ccccc12`: the Kd is > 4 mM (inactive).

For `CC1CC[C@]2(NC1)O[C@H]1CC3C4CC[C@H]5C[C@@H](O)CC[C@]5(C)C4CC[C@]3(C)[C@H]1[C@@H]2C` (stereo not given in full), the Kd was > 4 mM (inactive).

Consider `CC1CCC2(OC1)OC1CC3C4CC[C@H]5C[C@@H](O)CC[C@]5(C)C4CC(=O)[C@]3(C)C1C2C` (stereo not given in full), for which the Kd is > 4 mM (inactive).

Consider `CC[C@H]1CN2CCc3cc(OC)c(OC)cc3C2C[C@@H]1CC1NCCc2cc(OC)c(OC)cc21` (stereo not given in full), for which the Kd was > 4 mM (inactive).

`O=C(COc1ccccc1)N1CCc2ccccc2C1`: the Kd was > 4 mM (inactive).

For the molecule `CC(C)c1ccccc1NC(=O)c1cnccn1`, the Kd was > 4 mM (inactive).

Consider `CSc1nc(=O)[nH]c2c1CCC2`, for which the Kd is > 4 mM (inactive).

With `CN1CCC(N2CCOCC2)CC1`, the Kd is > 4 mM (inactive).

With `CSc1cccc(NC(=O)c2c(Cl)cnn2C)c1`, the Kd was > 4 mM (inactive).

Consider `Nc1ccccc1-c1nc2ccccc2[nH]1`, for which the Kd was > 4 mM (inactive).

In the case of `O=C(Nc1nnc(-c2cccnc2)o1)c1ccccc1F`, the Kd was > 4 mM (inactive).

Turning to `Cc1cc(NC(=O)c2cc(C)on2)no1`, the Kd was > 4 mM (inactive).

For the molecule `COc1cccc(NC(=O)c2nc3ncccn3n2)c1`, the Kd is > 4 mM (inactive).

With `C=C[C@@](C)(O)CCC1C(=C)C[C@H](O)C2C(C)(C)CCCC12C` (stereo not given in full), the Kd was > 4 mM (inactive).

As to `Nc1ccc(CN2CCOCC2)cc1`, the Kd was > 4 mM (inactive).

Take `O=C(OCc1c(F)cccc1Cl)c1cnccn1`: the Kd is > 4 mM (inactive).

In the case of `CC(=O)O[C@@H]1CC2C(C)(C)C(=O)C=C[C@]2(C)C2CC[C@]3(C)C(=CC(=O)O[C@H]3c3ccoc3)[C@@]21C` (stereo not given in full), the Kd was > 4 mM (inactive).

As to `O=C(Nc1cnccn1)c1ccncc1`, the Kd was > 4 mM (inactive).

For the molecule `CC(=O)Nc1ccc(S(=O)(=O)NC2=NCCS2)cc1`, the Kd was > 4 mM (inactive).

As to `C=C(C)[C@@H]1[C@H]2OC(=O)[C@@H]1[C@]1(O)C[C@H]3O[C@]34C(=O)O[C@H]2[C@]14C`, the Kd was > 4 mM (inactive).

As for `CSc1ccccc1NC(=O)c1ccco1`, the Kd was > 4 mM (inactive).

Regarding `Cc1c(-c2ccccc2)[n+](=O)c(-c2ccco2)c(C)n1[O-]`, the Kd is > 4 mM (inactive).

As for `C[C@@H]1CC[C@H]2[C@@H](C)C(=O)O[C@@H]3OC4(C)CC[C@@H]1[C@]32OO4`, the Kd is > 4 mM (inactive).

For `Cc1c(C(=O)Nc2ccccn2)oc2ccccc12`, the Kd is > 4 mM (inactive).

In the case of `Cc1ccc(C(=O)NC2=NCCS2)o1`, the Kd was > 4 mM (inactive).

In the case of `O=C(O)CCS(=O)(=O)c1ccccc1`, the Kd is > 4 mM (inactive).

With `C/C=C(\C)c1nnc(NC(=O)c2ccco2)s1`, the Kd was > 4 mM (inactive).

On to `CC(=O)Nc1nc2c(s1)C(=O)NCCC2`, for which the Kd is > 4 mM (inactive).

`CC(=O)c1sc2nc(N)nn2c1C`: the Kd is > 4 mM (inactive).

Turning to `Nc1ncnc2c1ncn2C1O[C@H](COP(=O)(O)O)[C@@H](O)[C@H]1O` (stereo not given in full), the Kd is > 4 mM (inactive).

For `CC(CO)NC(=O)C1C=C2c3cccc4[nH]cc(c34)C[C@H]2N(C)C1` (stereo not given in full), the Kd was > 4 mM (inactive).

Turning to `CCn1cnc2sc(C(=O)O)c(C)c2c1=O`, the Kd is > 4 mM (inactive).

On to `C/C=C/C(=O)Nc1ccc(NC(C)=O)cc1`, for which the Kd is > 4 mM (inactive).

In the case of `CC(=O)Nc1cnn(Cc2ccc(Br)cc2)c1`, the Kd was > 4 mM (inactive).

For the molecule `O=C(Nc1cnccn1)c1cccc(C(F)(F)F)c1`, the Kd was > 4 mM (inactive).

Consider `COCc1nn2c(N)c(C#N)cnc2c1-c1ccccc1`, for which the Kd is > 4 mM (inactive).

For `O=C1CSC(c2ccccc2)N1` (stereo not given), the Kd was > 4 mM (inactive).

`Cc1cc(N(CN2CCCC2=O)C(=O)c2ccccc2)no1`: the Kd was > 4 mM (inactive).

As to `CC1Cc2nc(SCC(N)=O)n(C)c(=O)c2S1` (stereo not given), the Kd is > 4 mM (inactive).

Take `NCCCCN=C(N)N`: the Kd is > 4 mM (inactive).

For the molecule `c1n[nH]cc1-c1cn[nH]c1`, the Kd is > 4 mM (inactive).

As to `CCC(C)OC1CCS(=O)(=O)C1` (stereo not given), the Kd is > 4 mM (inactive).

`O=c1[nH]cnc2nn(-c3ccccc3)nc12`: the Kd is > 4 mM (inactive).

As for `NC(=O)C1CCN(CC2CC=CCC2)CC1` (stereo not given), the Kd is > 4 mM (inactive).
